EP0359256A2, “The use of inositoltrisphosphate in the treatment of tissue damage” (PERSTORP AB, priority 1988, dated 1990)

How the values were obtained:
Type in all cases: in vivo
[1] = test system: shaved dorsal skin of rabbits; assay: Local oedema formation in rabbit dorsal skin in response to mediators of increased microvascular permeability, Evans Blue; settings: 50 mg/kg directly after injection of the mediators
Experimental: Local oedema formation is measured in the shaved dorsal skin of rabbits in response to mediators of increased microvascular permeability, such as histamine, bradykinin and platelet activating factor (PAF). When a vasodilator such as calcitonin gene-related peptide (CGRP) is administered together with the mediators the blood flow is increased and this system is established for testing compounds that reduces oedema formation.
Prior to injection of the different mediators Evans Blue is injected into the anaesthetized animals. The distribution of Evans Blue is a measurement of the tissue damage and oedema formation. Directly after injection of the mediators either saline (control) or 50 mg/kg of D-myo-inositol-1.2.6-trisphos phate (IP₃) are performed.
The results are shown below as per cent inhibition of IP₃ compared to control.

hamster cheek pouch = assay: Vascular permeability and bleeding induced by histamine in the hamster cheek pouch; settings: 80 min period
Experimental: Vascular permeability and bleeding induced by histamine in the hamster cheek pouch was determined in the presence of D-myo-inositol-1.2.6-trisphosphate (IP₃) compared to control. Male hamsters were fasted overnight and anaesthetised with sodium pentobarbitone. Infusion was performed through the jugular vein. Injection of histamine (2.7 mg/kg) was preceded by either saline (control) or IP₃ (5.0 mg/kg).

rat hind-paw = assay: Carrageenan-induced oedema of the rat hind-paw; settings: male rats, 1000 mg/kg injected 2 hours and 1 hour before carrageenan; four hours after induction of the damage
Experimental: Injection of carrageenan into the subplanar surface of the rat hind-paw induces a tissue damage that results in pronounced oedema. The degree of oedema can be reproducibly quantified by measuring paw circumference.
Two groups of five male rats were injected 2 hours and 1 hour before injection of carrageenan with 1000 mg/kg D-myo-inositol-1.2.6-trisphosphate (IP₃) or Krebs ringer solution (control) respectively.
Measurement of the paw diameter was made at hourly intervals.

mice = assay: Toxicity after intraperitoneal injection of very high doses; settings: 160 mg/kg body weight by intraperitoneal injection
skin of the abdomen = assay: Controlled burn damage in rats, albumin leakage measured with Evans Blue; settings: n=10, 10 mg/kg injection 15 minutes after the burn, then infusion of 0.2 mg/min for 2 hours
Experimental: A controlled burn damage is induced in rats as a heat probe is applied to the skin of the abdomen with a constant pressure. The probe has a surface temperature of […] and is allowed to deliver a specific amount of energy until the temperature is lowered to 37°C. 15 minutes after the induction of the burn an injection of saline (control) or D-myo-inositol-1.2.6-trisphosphate (IP₃) was performed. After this first injection (10 mg/kg IP₃) an infusion of 0.2 mg/min IP₃ followed for 2 hours. 90 minutes after the damage Evans Blue is injected to the animals. This compound binds to albumin, which leaks into the damaged tissue. The amount of albumin leakage is then easily determined by measuring the intensity of colour of Evans Blue in different parts of the tissue. After another 30 minutes the animals are killed and the tissue damage is determined. […] Thus IP₃ is an protective substance against tissue damage caused by burns.

With `O=P(O)(O)OC1[C@H](OP(=O)(O)O)[C@H](O)C(O)[C@H](O)[C@H]1OP(=O)(O)O` (stereo partly drawn) [IP₃, D-myo-inositol-1.2.6-trisphosphate] the “% inhibition with IP₃ compared to control” value (from here on “% inhibition with IP₃”) ([1]; mediator Bradykinin) was 64%, the “% inhibition with IP₃” value ([1]; mediator Histamine) was 61% and the “% inhibition with IP₃” value ([1]; mediator PAF) was 64%. For the same molecule, the “% inhibition” value (hamster cheek pouch; inhibition of petechiae versus saline control, histamine 2.7 mg/kg, IP₃ 5.0 mg/kg) was 88%, the number of petechiae (hamster cheek pouch; male hamsters, histamine 2.7 mg/kg preceded by IP₃ 5.0 mg/kg, infusion through jugular vein) was 1.0 and the “reduces the oedema as compared to control” value (rat hind-paw) was 40%. The toxic effects (mice) was “no toxic effects” and the “burn damage compared to control” value (skin of the abdomen) was “significantly reduced”.
